The results in this text go back to US20230277527A1, “ROR-GAMMA MODULATORS” (Escalier Biosciences B.V., priority 2016, published 2023).

The target in the first experiment is RORγt (Homo sapiens (Human), UniProt P51449). The experiment can be described thus: RORγt Gal fusion assay (Gal4 ligand binding reporter assay). The class given is cell-based. The settings on record: RORγt inverse agonists. How it is done: Human RORγ ligand binding assay was performed in 96-well format. The N-terminal DNA binding domains (DBD) of the native RORγ and RORγt receptors have been substituted with that of the yeast GAL4-DBD and RORγ is expressed constitutively in the cell line. Both agonist and inverse agonist activity can be detected. 10 mM compound stocks were diluted serially 1:3 with DMSO and further diluted with provided media to generate 10 titration points from 60 μM to 3 nM. These treatment conditions were added to the plates as 2× media in 100 μL volume. Each plate includes a positive control with 10 titration points as well as 6 negative control wells with vehicle only. Reporter cells were rapidly thawed and added to the plates in 100 μL volume. The plates were incubated for 24 hrs in a 37° C. humidified 5% CO2 incubator. Media was removed before the addition of room temperature Detection Substrate. After 5 minute incubation, the luminescence was quantified on a luminescence plate reader.
Sequence of RORγt (P51449 269-508): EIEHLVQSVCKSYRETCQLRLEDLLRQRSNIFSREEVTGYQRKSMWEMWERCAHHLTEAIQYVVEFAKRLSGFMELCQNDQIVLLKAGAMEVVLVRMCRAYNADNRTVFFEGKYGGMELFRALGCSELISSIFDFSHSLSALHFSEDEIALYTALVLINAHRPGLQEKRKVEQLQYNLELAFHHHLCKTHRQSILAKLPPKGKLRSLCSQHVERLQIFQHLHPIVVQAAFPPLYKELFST
`CC(C)OC(=O)CC1CN(Cc2ccc(-c3ccc(C(O)(C(F)(F)F)C(F)(F)F)cc3)cc2)CCN1Cc1ccncc1` (stereo not shown) [Compound 30, isopropyl 2-(4-((4′-(1,1,1,3,3,3-hexafluoro-2-hydroxypropan-2-yl)-[1,1′-biphenyl]-4-yl)methyl)-1-(pyridin-4-ylmethyl)piperazin-2-yl)acetate] yielded an IC50 of under 1 µM.

`CCOC(=O)C[C@@H]1CN(Cc2ccc(-c3ccc(C(O)(C(F)(F)F)C(F)(F)F)cc3)cc2)CCN1Cc1ccncc1` [Compound 49, ethyl (R)-2-(4-((4′-(1,1,1,3,3,3-hexafluoro-2-hydroxypropan-2-yl)-[1,1′-biphenyl]-4-yl)methyl)-1-(pyridin-4-ylmethyl)piperazin-2-yl)acetate] came in with an IC50 of under 1 µM.

`O=C(O)C1CN(Cc2ccc(-c3ccc(C(O)(C(F)(F)F)C(F)(F)F)cc3)cc2)CCN1Cc1ccncc1` (stereo not shown) [Compound 20, 4-((4′-(1,1,1,3,3,3-hexafluoro-2-hydroxypropan-2-yl)-[1,1′-biphenyl]-4-yl)methyl)-1-(pyridin-4-ylmethyl)piperazine-2-carboxylic acid]: the half-inhibitory concentration (IC50) is over 10 µM.

In the case of `CCOC(=O)C1CN(Cc2ccncc2)CCN1Cc1ccc(-c2ccc(C(O)(C(F)(F)F)C(F)(F)F)cc2)cc1` (stereo not shown) [Compound 9, ethyl 1-((4′-(1,1,1,3,3,3-hexafluoro-2-hydroxypropan-2-yl)-[1,1′-biphenyl]-4-yl)methyl)-4-(pyridin-4-ylmethyl)piperazine-2-carboxylate], the IC50 was under 1 µM.

Compound `CCOC(=O)CC1CN(Cc2ccncc2)CCN1Cc1ccc(-c2ccc(C(O)(C(F)(F)F)C(F)(F)F)cc2)cc1` (stereo not shown) [Compound 10, ethyl 2-(1-((4′-(1,1,1,3,3,3-hexafluoro-2-hydroxypropan-2-yl)-[1,1′-biphenyl]-4-yl)methyl)-4-(pyridin-4-ylmethyl)piperazin-2-yl)acetate] returned an IC50 of under 1 µM.

`O=C(O)CC1CN(Cc2ccc(-c3ccc(C(O)(C(F)(F)F)C(F)(F)F)cc3)cc2)CCN1Cc1ccncc1` (stereo not shown) [Compound 21, 2-(4-((4′-(1,1,1,3,3,3-hexafluoro-2-hydroxypropan-2-yl)-[1,1′-biphenyl]-4-yl)methyl)-1-(pyridin-4-ylmethyl)piperazin-2-yl)acetic acid]: the IC50 was over 10 µM.

Regarding `CC(C)NC(=O)C1CN(Cc2ccncc2)CCN1Cc1ccc(-c2ccc(C(O)(C(F)(F)F)C(F)(F)F)cc2)cc1` (stereo not shown) [Compound 24, 1-((4′-(1,1,1,3,3,3-hexafluoro-2-hydroxypropan-2-yl)-[1,1′-biphenyl]-4-yl)methyl)-N-isopropyl-4-(pyridin-4-ylmethyl)piperazine-2-carboxamide], the IC50 is over 10 µM.

In the case of `CCOC(=O)CC1CN(Cc2ccc(-c3ccc(C(O)(C(F)(F)F)C(F)(F)F)cc3)cc2)CCN1Cc1ccncc1` (stereo not shown) [Compound 18, ethyl 2-(4-((4′-(1,1,1,3,3,3-hexafluoro-2-hydroxypropan-2-yl)-[1,1′-biphenyl]-4-yl)methyl)-1-(pyridin-4-ylmethyl)piperazin-2-yl)acetate], the half-maximal inhibitory concentration (IC50) is under 1 µM.

`CCOC(=O)C1CN(Cc2ccc(-c3ccc(C(O)(C(F)(F)F)C(F)(F)F)cc3)cc2)CCN1Cc1ccncc1` (stereo not shown) [Compound 17, ethyl 4-((4′-(1,1,1,3,3,3-hexafluoro-2-hydroxypropan-2-yl)-[1,1′-biphenyl]-4-yl)methyl)-1-(pyridin-4-ylmethyl)piperazine-2-carboxylate] showed an IC50 of under 1 µM.

As for `CCOC(=O)CC1CN(Cc2ccc(-c3ccc(C(O)(C(F)(F)F)C(F)(F)F)cc3)c(C)c2)CCN1Cc1ccncc1` (stereo not shown) [Compound 35, ethyl 2-(4-((4′-(1,1,1,3,3,3-hexafluoro-2-hydroxypropan-2-yl)-2-methyl-[1,1′-biphenyl]-4-yl)methyl)-1-(pyridin-4-ylmethyl)piperazin-2-yl)acetate], the IC50 was under 1 µM.

The compound `O=C(CC1CN(Cc2ccc(-c3ccc(C(O)(C(F)(F)F)C(F)(F)F)cc3)cc2)CCN1Cc1ccncc1)OCCO` (stereo not shown) [Compound 31, 2-hydroxyethyl 2-(4-((4′-(1,1,1,3,3,3-hexafluoro-2-hydroxypropan-2-yl)-[1,1′-biphenyl]-4-yl)methyl)-1-(pyridin-4-ylmethyl)piperazin-2-yl)acetate] had an IC50 of under 1 µM.

`CCOCCOC(=O)CC1CN(Cc2ccc(-c3ccc(C(O)(C(F)(F)F)C(F)(F)F)cc3)cc2)CCN1Cc1ccncc1` (stereo not shown) [Compound 32, 2-ethoxyethyl 2-(4-((4′-(1,1,1,3,3,3-hexafluoro-2-hydroxypropan-2-yl)-[1,1′-biphenyl]-4-yl)methyl)-1-(pyridin-4-ylmethyl)piperazin-2-yl)acetate] returned a 50% inhibitory concentration (IC50) of under 1 µM.

In turn, `CCOCCOC(=O)C[C@H]1CN(Cc2ccc(-c3ccc(C(O)(C(F)(F)F)C(F)(F)F)cc3)cc2)CCN1Cc1ccncc1` [Compound 51, 2-ethoxyethyl (S)-2-(4-((4′-(1,1,1,3,3,3-hexafluoro-2-hydroxypropan-2-yl)-[1,1′-biphenyl]-4-yl)methyl)-1-(pyridin-4-ylmethyl)piperazin-2-yl)acetate] showed a half-maximal inhibitory concentration (IC50) of under 1 µM.

The test system of another experiment is IMQ-induced psoriasis.
Assay: not given
The conditions noted are these: topical pre-treatment daily for 5 days, 4 hours before IMQ.
As to `C[C@H]1C[C@H]2[C@@H]3CCC4=CC(=O)C=C[C@]4(C)[C@@]3(F)[C@@H](O)C[C@]2(C)[C@@]1(O)C(=O)CCl` [clobetasol], the “ear and back skin thickness” value is given as “significantly decreased”; the histopathology scoring result is “significantly decreased”; the total psoriasis score entry is reported as “significantly decreased”.
